Literature values in patent publication US20240418706A1, “QUANTIFICATION OF CIRCULATING REGENERATIVE AND ENDOTHELIAL PROGENITOR CELLS AS PREDICTORS OF HEALTH STATUS” (priority 2022, published 2024).
Read-outs that look alike come from different tables or passages of the source.

Key:
[1] = >17,000 healthy persons without hyperlipidemia but with elevated high-sensitivity C-reactive protein
circulating EPC [2] = conditions: in vivo
circulating EPC [3] = conditions: lipid lowering therapy
[4] = test system: endothelial responsiveness
EPC = conditions: in vivo
[5] = 6 days of G-CSF at 10 μg/kg
[6] = 41 patients with large anterior wall AMI
[7] = 114 patients, 56 treated and 58 control

CC(C)c1nc(N(C)S(C)(=O)=O)nc(-c2ccc(F)cc2)c1/C=C/[C@@H](O)C[C@@H](O)CC(=O)O [Crestor]
CRP levels [1]: lowering CRP levels | incidence of major cardiovascular incidents [1]: significantly reduced | circulating EPC levels (circulating EPC [2]): increase circulating EPC levels

CC(C)c1c(C(=O)Nc2ccccc2)c(-c2ccccc2)c(-c2ccc(F)cc2)n1CC[C@@H](O)C[C@@H](O)CC(=O)O [atorvastatin]
circulating EPC (circulating EPC [3]): increase circulating EPC | oxidative stress (circulating EPC [3]): reduced oxidative stress

growth hormone: growth hormone, used in "antiaging medicine"
endothelial responsiveness ([4]; healthy volunteers): improve endothelial responsiveness | endothelial responsiveness ([4]; patients with congestive heart failure): improve endothelial responsiveness

B1: G-CSF: Granulocyte colony stimulating factor, used clinically for mobilization of hematopoietic stem cells (protein, UniProt P09919 31-207, looked up)
Granulocyte …: TPLGPASSLPQSFLLKCLEQVRKIQGDGAALQEKLVSECATYKLCHPEELVLLGHSLGIPWAPLSSCPSQALQLAGCLSQLHSGLFLYQGLLQALEGISPELGPTLDTLQLDVADFATTIWQQMEELGMAPALQPTQGAMPAFASAFQRRAGGVLVASHLQSFLEVSYRVLRHLAQP
mobilization of EPC (EPC): stimulates mobilization of EPC | myocardial wall at the area of infarct ([5]; four months after the infarct, sustained over a year, compared to controls): thicker myocardial wall | ejection fraction ([5]; in comparison to controls): Statistically significant improvements | pathological remodeling ([5]; in comparison to controls): inhibition of pathological remodeling | LVEF [6]: improvement in LVEF | pathological remodeling [6]: diminished pathological remodeling | infarct size, left ventricular function, or coronary restenosis [7]: no influence
